Assay results from patent US5786344A, “Camptothecin drug combinations and methods with reduced side effects” (priority 1995, dated 1998).
Values joined by “and” are separate entries in the source; they are usually repeats but may differ in a detail not shown here. Equal values may be shown once.

Tests used:
[1] = Phase I pharmacokinetics of CPT-11, SN-38 and SN-38G in plasma/urine after 90 min iv infusion; settings: for "Biliary ratio" (median): AUC SN-38/SN-38G
Protocol: All patients met the standard laboratory criteria including criteria for adequate organ function. Informed, written consent was obtained from all patients prior to their first dose of CPT-11. The drug was given in 500 cc normal saline by intravenous infusion over 90 minutes on a weekly basis for four doses in a sixweek cycle. […] A second cycle was given with the same dose and schedule used during cycle 1. […] Patients who experienced dose limiting neutropenia were eligible to receive G-CSF at 5 μg/kg/day according to the criteria defined below.
To determine drug and metabolite levels, heparinized blood samples obtained on the first cycle of therapy, were centrifuged and the plasma was stored at -70° C. until analysis. CPT (camptothecin, 1 μg/ml, obtained from the National Cancer Institute, Bethesda, Md.) was used as an internal standard. One hundred μl of plasma was extracted with 2 ml of methanol, centrifuged at 2500×g for 10 min and the supernatant was evaporated to dryness. Reconstitution was done with 200 μl of methanol containing 0.1% 10M HCL (pH~2.0). For the estimation of SN-38G, plasma samples were extracted as described above. Prior to reconstitution, the samples were incubated with 1000 U of glucuronidase (Sigma Chemical Co., St. Louis, Mo.) for 2 hours at 37° C.
Analysis was done using a C18 column (μBondapak, 10 μm, 3.9×300 mm; Waters Associates, Milford, Mass.) preceded by a Novapak C18 guard column. […] Detection was monitored by a Hitachi F1050 Fluorescence detector (Hitachi Instruments Inc., Naperville, Ill.) with a λex at 375 nm and λem at 566 nm. […] SN-38G concentrations were determined as the increase in SN-38 concentrations following incubation with glucuronidase.
The plasma concentration-time data of CPT-11, SN-38 and SN-38G were analyzed by non-compartmental analysis using PCNONLIN (SCI, Lexington, Ky.). The area under the plasma concentration-time curve (AUC) from time zero (predose) to the time of the last quantifiable concentration (AUCt) was calculated by the trapezoidal rule. The AUC extrapolated to time infinity (AUCt →.infin.) was estimated by dividing the last quantifiable concentration by the terminal rate constant obtained by the log-linear regression of the terminal elimination phase. The AUC was the summation of AUCt and AUCt→.infin.. Clearance (CL) was estimated as the ratio of the dose and AUC.
The present study employed this principle to obtain an estimate of SN-38 excreted in the bile. Since glucuronidation is the major pathway of elimination of SN-38, the fraction of SN-38 not conjugated would be primarily excreted in the bile. The net biliary concentration of SN-38 would then be a resultant of its formation and elimination. This concentration was expressed as the "biliary ratio" which was the ratio of AUC of SN-38 to SN-38G. To control for individual variability in the amount of available drug, the ratio was multiplied by the AUC of CPT-11 to obtain a "biliary index" of SN-38.
The nonparametric Mann-Whitney test was employed to test for differences in pharmacokinetic outcomes between two patient groups, defined by the worst severity of diarrhea experienced in the first two cycles of CPT-11 treatment. Statistical tests were performed in the Number Cruncher Statistical System (Dr. Jerry Hintz, Kaysville, Utah). A two-sided significance level of less than or equal to 0.05 was considered statistically significant.

[2] = in vivo; settings: rat, in vivo, iv, 20 mg/kg
Source text: (§1) Of these 2 types of inducers, phenobarbital has been used as an […] and a mildly sedative agent in humans. The inventors' objective here was to investigate the effect of phenobarbital administration on the glucuronidation of SN-38 in rats.
(§2) Animal protocol: Female Wistar rats (~200 gm) having a permanent catheter installed in the right jugular vein were obtained from Charles River Breeding Laboratories (Wilmington, Mass.).
(§3) Three rats were given a single intraperitoneal dose of 100 mg/kg phenobarbital in physiological saline followed by 0.1% (w/v) phenobarbital in drinking water for four days. […] After each sample the catheter was flushed with an equal volume of physiologic saline. The samples were immediately centrifuged at 2500×g for 10 minutes and the plasma obtained was stored at -70° C. until analysis.
(§4) Data Analysis: The plasma concentration-time profile of the control and pretreated groups of rats were analyzed using non-compartmental methods (PCNONLIN, SCI, Lexington, Ky.). […] The nonparametric Mann-Whitney test was used to test for differences in AUC between the control and pretreated groups.

[3] = system: UDP-GT; assay: in vivo
Source text: as §1, §2, §3, §4

[4] = target: T1, p-glycoprotein (Homo sapiens, UniProt P08183); assay: in vitro; assay type: binding
T1 construct: membrane vesicles from the multidrug resistant breast tumor cell line; endogenous in cells; host or cells: MCF-7/Adr (multidrug resistant human breast cancer cell line), membrane vesicles
T1 sequence (P08183 whole entry): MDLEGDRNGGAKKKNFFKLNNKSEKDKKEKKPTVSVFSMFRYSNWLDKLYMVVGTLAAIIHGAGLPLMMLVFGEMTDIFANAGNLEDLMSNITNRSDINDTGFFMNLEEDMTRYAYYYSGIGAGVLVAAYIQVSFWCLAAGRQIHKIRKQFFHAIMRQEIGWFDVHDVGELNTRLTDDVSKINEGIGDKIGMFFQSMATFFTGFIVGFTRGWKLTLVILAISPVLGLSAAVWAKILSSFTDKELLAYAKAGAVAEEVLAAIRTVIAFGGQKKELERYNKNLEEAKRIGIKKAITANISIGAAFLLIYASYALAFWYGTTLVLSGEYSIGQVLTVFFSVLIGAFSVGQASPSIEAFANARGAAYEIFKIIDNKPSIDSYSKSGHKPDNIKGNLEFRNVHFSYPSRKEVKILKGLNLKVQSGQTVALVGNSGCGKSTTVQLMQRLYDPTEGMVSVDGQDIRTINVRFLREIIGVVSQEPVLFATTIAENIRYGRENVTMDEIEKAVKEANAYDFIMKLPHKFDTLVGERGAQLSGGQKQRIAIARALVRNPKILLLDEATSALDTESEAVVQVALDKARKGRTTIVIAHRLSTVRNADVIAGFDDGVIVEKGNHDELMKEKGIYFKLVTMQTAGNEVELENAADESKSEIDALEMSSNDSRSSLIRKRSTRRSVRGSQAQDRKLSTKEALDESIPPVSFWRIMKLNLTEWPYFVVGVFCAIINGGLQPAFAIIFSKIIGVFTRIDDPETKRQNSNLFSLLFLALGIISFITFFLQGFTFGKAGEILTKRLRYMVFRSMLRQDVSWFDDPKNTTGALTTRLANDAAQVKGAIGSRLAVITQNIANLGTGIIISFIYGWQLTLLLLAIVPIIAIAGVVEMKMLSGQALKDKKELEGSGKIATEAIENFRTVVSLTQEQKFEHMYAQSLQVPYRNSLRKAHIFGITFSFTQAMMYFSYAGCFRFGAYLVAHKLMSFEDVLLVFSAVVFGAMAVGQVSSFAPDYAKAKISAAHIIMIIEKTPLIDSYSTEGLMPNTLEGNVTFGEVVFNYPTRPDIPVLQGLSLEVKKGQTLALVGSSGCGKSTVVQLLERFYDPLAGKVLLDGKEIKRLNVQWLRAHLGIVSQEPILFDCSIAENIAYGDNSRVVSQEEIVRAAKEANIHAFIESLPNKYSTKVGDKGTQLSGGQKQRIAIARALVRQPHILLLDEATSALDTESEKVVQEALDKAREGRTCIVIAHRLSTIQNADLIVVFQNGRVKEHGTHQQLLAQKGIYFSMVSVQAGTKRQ
Source text: FIG. 5. […]. Membrane vesicles from the multidrug resistant human breast cancer tumor cell line […] were used. […].

[5] = Phase I toxicity evaluation (CALGB expanded toxicity criteria); assay type: in vivo, human
Protocol: […]. The detailed examples presented in the present application reflect treatment on 21 patients.
Significant gastrointestinal toxicity was first manifested at the second dose level (120 mg/m2). […] […]. […] Two of these cases were found at exploratory laparotomy to be due to progression of disease and one resolved after conservative therapy, but was likely due to progression of disease. […] In a few patients, however, high doses of ondansetron were required to achieve relief.
Toxicity assessment was done according to the CALGB expanded toxicity criteria. Patients who experienced>grade 2 diarrhea at any time while on study were begun on loperamide 4 mg p.o. followed by 2 mg p.o. after every stool up to a total dose of 16 mg/day. If loperamide was unsuccessful in controlling diarrhea, patients were begun on octreotide acetate 100-600 μg for 2-3 doses per day. Stool collections were also obtained to test for any co-existing infection. […]

In the case of `CCc1c2c(nc3ccc(OC(=O)N4CCC(N5CCCCC5)CC4)cc13)-c1cc3c(c(=O)n1C2)COC(=O)[C@]3(O)CC` [CPT-11, 7-ethyl-10-[4-(1-piperidino)-1-piperidino)carbonyloxycamptot hecin], the “"biliary index" (median)” value ([1]; 145 mg/m2, Grade 0-2 diarrhea, p=0.03) is reported as 2275 and 2276, the “"biliary index" (median)” value ([1]; 145 mg/m2, Grade 3-4 diarrhea, p=0.03) is reported as 4747 and the “"Biliary ratio" (median)” value ([1]; 145 mg/m^2, Grade 0-2 diarrhea, n = 5) is reported as 0.27. The “"biliary index" (median)” value ([1]; 145 mg/m^2, Grade 0-2 diarrhea, n = 5, p 0.03) was 2276 ng·h/mL, the “"Biliary ratio" (median)” value ([1]; 145 mg/m^2, Grade 3-4 diarrhea, n = 5) was 0.53 and the “"biliary index" (median)” value ([1]; 145 mg/m^2, Grade 3-4 diarrhea, n = 5, p 0.03) was 4747 ng·h/mL. For the same molecule, the “"biliary index"” value ([1]; 4 of 5 patients with grade 3-4 diarrhea, 145 mg/m^2) was “above 4000”, the “effect of pretreatment with G-CSF on pharmacokinetics” value ([1]; CPT-11 and its metabolites) was “no effect” and the “"biliary index" (median)” value ([1]; all dose levels, grade 0-2 diarrhea, n=12, p=0.0004) was 2228. The “"biliary index" (median)” value ([1]; all dose levels, grade 3-4 diarrhea, n=9, p=0.0004) was 5499, the “increase of AUC from 100 to 175 mg/m^2” value ([1]; in vivo) was 2.6 fold and the “interpatient variability of AUC (percent coefficient of variation)” value ([1]; in vivo) was 17-57%. For the same molecule, the “patients with grade 3-4 diarrhea having index estimates above 4000” value ([1]; in vivo) was “about 90%”, the “"biliary index"” value ([1]; one patient, grade 3-4 diarrhea, c diff+) was 3028 and the AUC at 6 h ([2]; AUC CPT-11, control, CPT-11 20 mg/kg iv, n = 4, 0-6 h) was 7700 ± 2670 ng·h/mL. For the same molecule, the AUC at 6 h ([2]; AUC CPT-11, phenobarbital pretreated, CPT-11 20 mg/kg, n = 2) was 3060 ng·h/mL, the decrease in availability ([3]; UDP-GT induction by phenobarbital) was ~2 fold and the “decline in AUC” value ([3]; phenobarbital pretreated) was 60%. For the same molecule, the “Change in AUC CPT-11” value ([3]; phenobarbital pretreated vs control) was -60.29%, the substrate of p-glycoprotein [4] was “substrates of p-glycoprotein” and the inhibition at 10 µM ([4]; human, mcf-7/adr membrane vesicles) was 80%. The myelosuppression ([5]; 100 mg/m2) was “not a significant toxicity”, the diarrhea ([5]; 100 mg/m^2) was “No diarrhea was observed” and the myelosuppression ([5]; 120 mg/m2) was “dose-limiting in one patient”. The “patients developing grade 3-4 diarrhea” value ([5]; 120 mg/m^2) was 34%, the myelosuppression ([5]; 145 mg/m2, ameliorated by prophylactic G-CSF) was “dose-limiting in two patients” and the “neutropenia >grade 1” value ([5]; 145 mg/m2 with G-CSF) was “No cases”. For the same molecule, the “patients developing grade 3-4 diarrhea” value ([5]; 145 mg/m^2) was 50%, the neutropenic fevers ([5]; 175 mg/m2, first two patients, despite prophylactic G-CSF) was “hospitalized with neutropenic fevers” and the “patients developing grade 3-4 diarrhea” value ([5]; 175 mg/m^2) was 100%. The major toxicities ([5]; 100-175 mg/m2) was “myelosuppression, diarrhea, and abdominal cramping pain”, the abdominal cramping ([5]; Patients 4 (120 mg/m2), 21 and 15 (145 mg/m2)) was “grade 3 abdominal cramping” and the neutropenic fevers ([5]; Patients 13 and 16, 145 mg/m2, cycle 1) was “hospitalized with neutropenic fevers”. The small bowel obstructions ([5]; likely due to progression of disease) was “Three patients developed small bowel obstructions”, the nausea and vomiting ([5]; majority of patients, doses >120 mg/m2) was “grade 1-2 nausea and vomiting” and the abdominal cramps ([5]; other patients) was “Four other patients had mild (grade 1) abdominal cramps”.
